Experimental data reported in PubChem BioAssay (NCI).
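Where inhibition never reached the appropriate level, the endpoint shown equals the highest concentration tested. Otherwise, values were interpolated linearly from a five-concentration, 48-hour dose response in 96-well plates. Definition used: TGI = concentration required for complete inhibition of growth.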

Key:
Test in all cases: NCI tumour cell line growth inhibition, 48 h
[1] = tested on: HT29 colon
[2] = tested on: 786-0 renal
[3] = tested on: U251 CNS
[4] = tested on: A549 NSCLC
[5] = tested on: SF-268 CNS
[6] = tested on: OVCAR-4 ovarian
[7] = tested on: HCT-15 colon
[8] = tested on: NCI-H460 lung
[9] = tested on: RXF-631 renal
[10] = tested on: OVCAR-3 ovarian
[11] = tested on: RXF 393 renal
[12] = tested on: XF 498 CNS
[13] = tested on: RPMI-8226 leukemia
[14] = tested on: DLD-1 colon
[15] = tested on: A498 renal
[16] = tested on: SK-MEL-5 melanoma
[17] = tested on: KM12 colon
[18] = tested on: CCRF-CEM leukemia
[19] = tested on: SK-OV-3 ovarian
[20] = tested on: SR leukemia
[21] = tested on: SW-620 colon
[22] = tested on: UACC-257 melanoma
[23] = tested on: HCC-2998 colon
[24] = tested on: LXFL 529 NSCLC
[25] = tested on: DMS 273 small cell lung
[26] = tested on: UACC-62 melanoma
[27] = tested on: SF-539 CNS
[28] = tested on: UO-31 renal
[29] = tested on: MALME-3M melanoma
[30] = tested on: LOX IMVI melanoma
[31] = tested on: SK-MEL-2 melanoma
[32] = tested on: HL-60(TB) leukemia
[33] = tested on: K-562 leukemia
[34] = tested on: SNB-19 CNS
[35] = tested on: NCI-H522 lung
[36] = tested on: KM20L2 colon
[37] = tested on: ACHN renal
[38] = tested on: DMS 114 small cell lung
[39] = tested on: M14 melanoma
[40] = tested on: COLO 205 colon
[41] = tested on: SF-295 CNS
[42] = tested on: IGROV1 ovarian
[43] = tested on: NCI-H23 lung
[44] = tested on: EKVX NSCLC
[45] = tested on: CAKI-1 renal
[46] = tested on: HOP-62 NSCLC
[47] = tested on: MOLT-4 leukemia
[48] = tested on: OVCAR-8 ovarian
[49] = tested on: M19-MEL melanoma
[50] = tested on: SNB-75 CNS
[51] = tested on: HCT-116 colon
[52] = tested on: SNB-78 CNS
[53] = tested on: HOP-18 NSCLC
[54] = tested on: SN12C renal
[55] = tested on: TK-10 renal
[56] = tested on: HOP-92 NSCLC
[57] = tested on: OVCAR-5 ovarian
[58] = tested on: NCI-H226 lung

Measured: TGI

COc1ccc(S(=O)(=O)N/N=C/CN2C(=O)c3ccccc3C2=O)cc1OC
not listed: [52] | [53] | [54] | [55] | [56] | [57] | [58]
> 100 µM: all other assays above

CC1=C(C)CC2(SC1)C(=O)c1ccccc1C2=O
not listed: [10] | [12] | [43] | [44]
> 100 µM: all other assays above
